“Also recorded” adds a separate entry of the source. *1 amine or outer side, *2 acyl side, *3 side chain or, on linkers, in order; H or OH if unused. Where a SMILES comes first, the peptide text is derived from it. Bridges are numbered along the chain shown (N, C = ends). [ ]: non-standard residue; d: D form. The star is where a group is joined. dAsp(3R-OH) = N[C@@H](C(=O)O)[C@@H](O)C(=O)O; X1 = O=NN(O)CCC[C@@H](N[*:1])C(=O)[*:2]; d(aThr) = C[C@@H](O)[C@@H](N)C(=O)O; Octanoyl = CCCCCCCC(=O)*
What was measured:
[1] = Acid/base titration and speciation of gramibactin; assay type: physicochemical; conditions: physiological pH; I=0.1 M KCl; 25 °C
Source text: (§1) To evaluate the actual strength of the siderophore, we conducted potentiometric and spectrophotometric titrations to evaluate the acid/base behavior of gramibactin and to determine the complex formation constant of the iron complex (FIG. 2C). […] It thus appeared conceivable that the rhizosphere bacteria excrete the metal chelator to provide the host plant with iron.
(§2) Potentiometric ligand competition measurements and calculations have been performed as reported (11) at l=0.1 M in KCl(aq) and at T=25.0±0.1° C., using a Mettler Toledo DL50 apparatus, equipped with a Schott Instruments N6180 combined glass electrode, controlled by LabX light v1.05 software. The titrand solutions consisted in gramibactin (from 0.7 mm to 1 mm), EDTA (as disodium salt) and Fe^3+ (as FeCl3) in different gramibactin:Fe^3+:EDTA ratios, with slight known excess of HCl.
(§3) This can be explained by a buffering effect of the two N-nitroso-hydroxylamine moieties. […]
(§4) Titrations were carried out at 0.1 m in KCl(aq) and T=25.0±0.1° C. in a glass cuvette (d=10.00 mm) placed in the spectrometer equipped with a thermostated cell holder. The pH was read out by using a inoLab pH 7110 with a combination electrode (SI analytics, ScienceLine Type N 6000 A). […] UV/Vis-spectra were recorded after every addition of KOH(aq) followed by magnetic stirring (FIG. 12).

[2] = Potentiometric and spectrophotometric titrations of the gramibactin/Fe3+ system with EDTA as competitive chelating agent; assay type: physicochemical; conditions: I=0.1 M KCl
Source text: as §1, §2, §3, §4

[3] = test system: extracted proteins from corn roots; experiment: In vitro NO release assay with 2,3-diaminonaphthalene probe; assay type: biochemical, Zea mays L. ssp. saccharata; conditions: 2 mM test substance, 1.2 mM H2O2, 0.2 mM DAN, root proteins, 20 min, pH 6
Method: To probe the proposed enzymatic NO release in vitro, we extracted soluble proteins from ground root tissue of hydroponically grown plants into phosphate buffer. To monitor the liberation of NO in the in vitro enzyme assay, we used 2,3-diaminonaphthalene (DAN) as a reporter. Nitric oxide reacts with this chemical probe to form the 2,3-napthotriazole, and its strong fluorescence can be readily measured using a microplate reader. Extracted root proteins were incubated with the probe, hydrogen peroxide and either Fe-gramibactin or the iron-free ligand, using heat-inactivated proteins as negative control. […] Thus, gramibactin represents a novel NO donor.
One-week-old plants were harvested and the roots were rinsed with distilled water. After separating the roots from the shoot, the root tissue was frozen using liquid nitrogen and grounded with mortar and pestle. The plant material was then extracted using 1 mL 66 mm NaH2PO4 buffer (pH 6). The extract was centrifuged to remove remaining plant material, and 20 μL of the supernatant were used for in vitro assays. […] Fluorescence was measured using a Varioskan LUX (Thermo Scientific) microplate reader (IEx.=375 nm, IEm.=415 nm). Fluorescence values were normalized to the sample with the highest fluorescence. Every assay was performed in triplicates and every replicate was measured three times, and the mean of all these replicates was plotted. […]

corn roots = experiment: In planta NO release assay with DAF-2DA, fluorescence microscopy; assay type: in vivo, Zea mays L. ssp. saccharata; conditions: 100 μM; 1.5-2 h after loading with 10 μM DAF-2DA
Method: To verify the postulated NO release in planta we treated fresh corn seedlings with diaminofluoresceine-2-diacetate (DAF-2DA), a cell-permeable probe that captures NO with formation of a highly fluorescent triazole. After loading maize roots with the chemical probe they were incubated with negative controls, gramibactin, or Fe-gramibactin, then cut and inspected by fluorescence microscopy. […] Thus, NO is in fact liberated from gramibactin in the plant tissue. A weak signal was also detectable in the root treated with the Fe-gramibactin complex. This finding is important as it confirms that iron is removed from gramibactin in vivo, thus providing free ligands that can subsequently release nitric oxide. Finally, fluorescence microscopy also allowed localizing NO, which is apparently released into the intracellular space. This observation is plausible as peroxidases, which are required for NO release, are typically located in the cell membrane.
Young seedlings (2-3 days old) were placed in a vial containing 4 mL standard nutrient solution (see above) with 10 μm 4,5-diaminofluorescein diacetate and incubated at room temperature for 30 min. Seedlings were then removed, and the root was rinsed with deionized water before placing them in nutrient solution containing 100 μm gramibactin, 100 μm Fe-gramibactin or no additive (control). […]

corn plants = experiment: Chlorophyll content determination in hydroponically grown corn plants; assay type: in vivo, Zea mays L. ssp. saccharata; conditions: 50 μM in nutrient solution; 21 d hydroponic growth; 3rd leaf
Method: Corn plants were grown in nutrient solutions deficient in iron, or supplementing either Fe-EDTA (positive control) or Fe-gramibactin. Solvent and metal-free chelators were used as negative controls. As readout for iron uptake we measured the chlorophyll content of youngest leaves, since chlorophyll biosynthesis is strongly dependent on iron availability (11).
Seeds from maize (Zea mays L. ssp. saccharata) were commercially acquired (Kiepenkerl) and surface sterilized in 4.5% (v/v) sodium hypochlorite for 10 minutes and subsequently rinsed 5 times with 50 mL sterile distilled water. Seeds were germinated in rolled filter papers soaked with sat. CaSO4 solution for 3 d in at 30° C. in the dark. […]
Plants were grown hydroponically for 21 days using the above described adjusted nutrient solution. […] The last developed leaf of each plant (3rd leaf) was removed, and fresh weight was determined. […] The residue was dissolved in 1 mL methanol and 1:10 or 1:20 dilutions with methanol were analysed spectrophotometrically using a Shimadzu UV-1800 spectrophotometer. Samples were measured at 25° C. using discardable plastic cuvettes (d=1 cm). […] Chlorophyll contents were calculated using the equations developed by Wellburn.

log □ (complex formation constant of the iron complex) ([2]; disodium EDTA as competitive chelating agent, T=25.0±0.1 °C)	protons released upon metal complexation ([2]; potentiometric titration, gramibactin:Fe3+ 1:1, 25 °C)	Structure (SMILES)	protonation state of graminine residues (speciation diagram) [1]	fluorescence of 2,3-naphthotriazole (NO release) [3]	DAF-2T fluorescence signal in root cross sections (NO release in planta) (corn roots)	higher total chlorophyll content versus iron-free cultured plants (corn plants)
27.6±0.1	four	CCCCCCCC(=O)N[C@@H](C(=O)N[C@@H]1C(=O)N[C@H]([C@@H](C)O)C(=O)N[C@H](CCCN(O)N=O)C(=O)NCC(=O)N[C@H](CCCN(O)N=O)C(=O)O[C@@H]1C)[C@@H](O)C(=O)O [gramibactin] (Octanoyl-[dAsp(3R-OH)]T[d(aThr)][X1]G[X1]; ester 2-C)	both graminine residues are deprotonated at physiological pH	drastically increased fluorescence; also recorded: liberates NO	strong signal; also recorded: liberates NO	
		O=C([O-])CN(CCN(CC(=O)[O-])CC(=O)[O-])CC(=O)[O-].[Fe+3] [Fe-EDTA]				50%
